Laboratory results taken from PubChem BioAssay AID1259411 (Chemical Carcinogenesis Research Information System (CCRIS), 2018).
The source made the active and inactive calls. No rule for the calls is given here.

System: rodent carcinogenicity bioassays, tumor incidence
Experiment: CCRIS carcinogenicity studies
Procedure, shortened: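 NCI-built, expert-reviewed records of carcinogenicity and related test outcomes (mutagenicity, tumor promotion/inhibition) compiled from published and report sources, historical span 1985-2011, not updated.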

S=C(NC1CCCCC1)NC1CCCCC1
carcinogen call (Species: MOUSE, Strain/Sex: B6C3F1/FEMALE, Route: ORAL, Dose: 0, 25000, 50000 PPM IN DIET, Dose: 0, 25000, 50000 PPM IN DIET): inactive; negative
carcinogen call (Species: MOUSE, Strain/Sex: B6C3F1/MALE, Route: ORAL, Dose: 0, 25000, 50000 PPM IN DIET, Dose: 0, 25000, 50000 PPM IN DIET): inactive; negative
carcinogen call (Species: RAT, Strain/Sex: F344/FEMALE, Route: ORAL, Dose: 0, 25000, 50000 PPM IN DIET, Dose: 0, 25000, 50000 PPM IN DIET): inactive; negative
carcinogen call (Species: RAT, Strain/Sex: F344/MALE, Route: ORAL, Dose: 0, 25000, 50000 PPM IN DIET, Dose: 0, 25000, 50000 PPM IN DIET): inactive; negative

CN(C)CCN(Cc1ccsc1)c1ccccn1
carcinogen call (Species: RAT, Strain/Sex: SPRAGUE-DAWLEY/FEMALE, Route: ORAL, Dose: 0, 500, 1000 PPM IN DRINKING WATER 5D/WK FOR LIFE (STUDY DURATION: 572-731 D), Dose: 0, 500, 1000 PPM IN DRINKING WATER 5D/WK FOR LIFE (STUDY DURATION: 572-731 D)): inactive; negative
carcinogen call (Species: RAT, Strain/Sex: SPRAGUE-DAWLEY/MALE, Route: ORAL, Dose: 0, 500, 1000 PPM IN DRINKING WATER 5D/WK FOR LIFE (STUDY DURATION: 515-576 D), Dose: 0, 500, 1000 PPM IN DRINKING WATER 5D/WK FOR LIFE (STUDY DURATION: 515-576 D)): inactive; negative

NNC(=O)c1ccccc1
carcinogen call (Species: MOUSE, Strain/Sex: SWISS/FEMALE, Route: ORAL, Dose: 0, 0.1% SOLUTION IN DRINKING WATER STARTING AT 6 WK OF AGE AND CONTINUED FOR LIFE FOR AN AVERAGE DAILY INTAKE OF 0, 0.57, Dose: 0, 0.1% SOLUTION IN DRINKING WATER STARTING AT 6 WK OF AGE AND CONTINUED FOR LIFE FOR AN AVERAGE DAILY INTAKE OF 0, 0.57, Tumor Site: Type of Lesion: LUNG: ADENOMA, LUNG: ADENOMA AND ADENOCARCINOMA): active; positive
carcinogen call (Species: MOUSE, Strain/Sex: SWISS/MALE, Route: ORAL, Dose: 0, 0.01% SOLUTION IN DRINKING WATER STARTING AT 6 WK OF AGE AND CONTINUED FOR LIFE FOR AN AVERAGE DAILY INTAKE OF 0, 0.8, Dose: 0, 0.01% SOLUTION IN DRINKING WATER STARTING AT 6 WK OF AGE AND CONTINUED FOR LIFE FOR AN AVERAGE DAILY INTAKE OF 0, 0.8, Tumor Site: Type of Lesion: LUNG: ADENOMA, LUNG: ADENOMA AND ADENOCARCINOMA): active; positive

C/C=C/c1ccc(O)c(OC)c1
carcinogen call (Species: Mouse, Strain/Sex: B6C3F1 /Female (50/Group), Route: Oral, Dose: 0, 75, 150, 300 mg/kg in corn oil, by gavage, 5 d/wk for 2 yr, Dose: 0, 75, 150, 300 mg/kg in corn oil, by gavage, 5 d/wk for 2 yr): inactive; negative. (authors describe as equivocal evidence based on incidence of histiocy
carcinogen call (Species: Mouse, Strain/Sex: B6C3F1 /Male (50/Group), Route: Oral, Dose: 0, 75, 150, 300 mg/kg in corn oil, by gavage, 5 d/wk for 2 yr, Dose: 0, 75, 150, 300 mg/kg in corn oil, by gavage, 5 d/wk for 2 yr, Tumor Site: Type of Lesion: Liver: hepatocellular adenoma (24/50, 35/50, 37/50, 33/50), hepatocellular carcinoma (8/50, 18/50, 19/50, 18/50), hepato, Tumor Site: Type of Lesion: Liver: hepatocellular adenoma (24/50, 35/50, 37/50, 33/50), hepatocellular carcinoma (8/50, 18/50, 19/50, 18/50), hepato): active; positive. (authors describe as clear evidence)
carcinogen call (Species: Rat, Strain/Sex: F344/N / Female (50/Group), Route: Oral, Dose: 0, 75, 150, 300 mg/kg in corn oil, by gavage, 5 d/wk for 2 yr, Dose: 0, 75, 150, 300 mg/kg in corn oil, by gavage, 5 d/wk for 2 yr): inactive; negative
carcinogen call (Species: Rat, Strain/Sex: F344/N / Male (50/Group), Route: Oral, Dose: 0, 75, 150, 300 mg/kg in corn oil, by gavage, 5 d/wk for 2 yr, Dose: 0, 75, 150, 300 mg/kg in corn oil, by gavage, 5 d/wk for 2 yr): inactive; negative. (authors describe as equivocal evidence based on incidence of thymoma,

CN1[C@@H]2CC[C@H]1CC(OC(=O)C(CO)c1ccccc1)C2 (stereo partly specified)
carcinogen call (Species: RAT, Strain/Sex: SPRAGUE-DAWLEY/FEMALE, Route: INTRAPERITONEAL, Dose: 0, 25 UG/KG BW 2/D FOR 5 D TO VIRGIN FEMALE RATS (STUDY DURATION: 28 MO)): inactive; negative

[Si]
carcinogen call (Species: RAT, Strain/Sex: F344/FEMALE, Route: SUBCUTANEOUS IMPLANT, Dose: 10 X 20 X 0.3 MM SHEETS IMPLANTED INTO 2 SITES IN LATERAL ABDOMINAL REGION AND 1 SITE ON THE BACK (STUDY DURATION: 741 D, Tumor Site: Type of Lesion: IMPLANT SITE: MALIGNANT HISTIOCYTOMA): active; positive

C[C@H]1[C@H](c2ccc(Cl)cc2)SC(=O)N1C(=O)NC1CCCCC1
carcinogen call (Species: Rat, Strain/Sex: Fischer 344/Female (70/Group), Route: Oral, Dose: 0, 60, 430, 3000 ppm in diet for 24 mo, study duration 24 mo, Dose: 0, 60, 430, 3000 ppm in diet for 24 mo, study duration 24 mo): inactive; negative
carcinogen call (Species: Rat, Strain/Sex: Fischer 344/Male (70/Group), Route: Oral, Dose: 0, 60, 430, 3000 ppm in diet for 24 mo, study duration 24 mo, Dose: 0, 60, 430, 3000 ppm in diet for 24 mo, study duration 24 mo, Tumor Site: Type of Lesion: Mammary gland: fibroadenoma (0, 1, 2, 6)): active; positive. (department of pesticides regulation reviewer describes as possible ad
